Laboratory results reported in paper PMC3286601 (Biochemistry, 2012).
Like-named read-outs stand apart in the source and are kept apart here.

Assays:
[1] = target: T1, wild-type Pseudomonas sp. strain CBS3 4-HB-CoA thioesterase (Pseudomonas sp., UniProt P56653); assay: Steady-state product inhibition of thioesterase-catalyzed hydrolysis of 4-HB-CoA; type: biochemical
T1 sequence (P56653 1-141): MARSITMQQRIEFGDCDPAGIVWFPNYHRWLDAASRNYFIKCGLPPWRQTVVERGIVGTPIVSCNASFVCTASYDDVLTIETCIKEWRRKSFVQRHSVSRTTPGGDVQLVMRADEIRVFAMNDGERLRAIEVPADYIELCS

[2] = target: T1, wild-type Pseudomonas sp. strain CBS3 4-HB-CoA thioesterase; assay: Steady-state kinetic constants; type: biochemical; settings: substrate hydrolysis, pH 7.5, 25 °C
[3] = target: T1, wild-type Pseudomonas sp. strain CBS3 4-HB-CoA thioesterase; assay: Ligand binding to wild-type thioesterase by stopped-flow fluorescence quenching; settings: for kobs (apparent pseudo-first order binding rate constant): 0.54 µM thioesterase; for koff: read-out: koff (dissociation rate constant); for kon: read-out: kon (association rate constant)
[4] = target: D17N thioesterase; settings: inert D17N thioesterase complex, steady-state fluorescence quenching; ref [5]; cited from earlier work
[5] = target: T1, wild-type Pseudomonas sp. strain CBS3 4-HB-CoA thioesterase; assay: kcat pH rate profiles in H2O and D2O, solvent kinetic isotope effect on kcat; type: biochemical; settings: for C1 (pH independent kcat plateau) / C2 (pH independent kcat plateau) / first break in kcat pH profile / second break in kcat pH profile: fit to equation 4
[6] = target: T1, wild-type Pseudomonas sp. strain CBS3 4-HB-CoA thioesterase; assay: Steady-state multiple-turnover time courses; type: biochemical
[7] = conjugate acid of the CoA thiolate anion leaving group; source not stated; cited from earlier work
[8] = target: T1, wild-type Pseudomonas sp. strain CBS3 4-HB-CoA thioesterase; type: biochemical
[9] = target: T1, wild-type Pseudomonas sp. strain CBS3 4-HB-CoA thioesterase; type: biochemical; remark: listed apart in the source

With O=C(O)c1ccc(O)cc1 [4-HB, 4-hydroxybenzoate] the Ki [1] was 1200 ± 200 µM.

With CC(C)(COP(=O)(O)OP(=O)(O)OC[C@H]1O[C@@H](n2cnc3c(N)ncnc32)[C@H](O)[C@@H]1OP(=O)(O)O)[C@@H](O)C(=O)NCCC(=O)NCCSC(=O)c1ccc(O)cc1 [4-HB-CoA, 4-hydroxybenzoyl-CoA] the steady-state kcat [2] was 18 s⁻¹, the Kd [3] was 0.2 µM and the “kobs (apparent pseudo-first order binding rate constant)” value ([3]; 5.0 µM 4-HB-CoA (b38 prints 4.0 µM), pH 7.5, 25 °C) was 280 ± 30 s⁻¹. For the same compound, the koff [3] was 13 ± 5 s⁻¹, the kon [3] was 6.5e+07 ± 2e+06 M⁻¹ s⁻¹ and the “substrate-binding rate k1” value ([3]; summary value in Conclusions) was ~ 70 µM^−1s^−1. For the same compound, the Kd [4] was 0.14 µM, the “pH independent isotope effect from ratio of C1 values” ([5]; H2O/D2O) was 3.8 and the “pH independent isotope effect from ratio of C2 values” ([5]; H2O/D2O) was 3.7. The “C1 (pH independent kcat plateau)” value ([5]; buffered D2O) was 1.3 ± 0.2, the “C2 (pH independent kcat plateau)” value ([5]; buffered D2O) was 15 ± 1 and the “first break in kcat pH profile” value ([5]; buffered D2O) was 5.1 ± 0.1. The “second break in kcat pH profile” value ([5]; buffered D2O) was 8.0 ± 0.1, the “C1 (pH independent kcat plateau)” value ([5]; buffered H2O) was 5.0 ± 0.1 and the “C2 (pH independent kcat plateau)” value ([5]; buffered H2O) was 55 ± 4. For the same compound, the “first break in kcat pH profile” value ([5]; buffered H2O) was 5.15 ± 0.09, the “second break in kcat pH profile” value ([5]; buffered H2O) was 7.70 ± 0.08 and the “D2O solvent kinetic isotope effect (SKIE) on kcat” value ([5]; pH independent) was 3.7–3.8.

For CC(C)(COP(=O)(O)OP(=O)(O)OC[C@H]1O[C@@H](n2cnc3c(N)ncnc32)[C@H](O)[C@@H]1OP(=O)(O)O)[C@@H](O)C(=O)NCCC(=O)NCCSCC(=O)c1ccc(O)cc1 [4-HP-CoA, 4-hydroxyphenacyl-CoA], the Kd [3] was 0.33 µM, the “kobs (apparent pseudo-first order binding rate constant)” value ([3]; 5.3 µM 4-HP-CoA, 50 mM K+HEPES pH 7.5, 25 °C) was 350 ± 4 s⁻¹ and the koff [3] was 20 ± 5 s⁻¹. For the same compound, the kon [3] was 5.9e+07 ± 1e+06 M⁻¹ s⁻¹.

For CC(C)(COP(=O)(O)OP(=O)(O)OC[C@H]1O[C@@H](n2cnc3c(N)ncnc32)[C@H](O)[C@@H]1OP(=O)(O)O)[C@@H](O)C(=O)NCCC(=O)NCCS [CoA, coenzyme A], the Kd [6] is given as 300 µM, the “pKa of the conjugate acid” value [7] is given as 9.7 and the Ki [1] is given as 250 ± 70 µM. The “Kii (intercept inhibition constant)” value ([1]; noncompetitive inhibition of 4-HB-CoA hydrolysis, pH 7.5, 25 °C) was 900 ± 300 µM, the Kd [8] was 300 µM and the Kd [9] was 300 µM.
